Measurements as given in patent publication US9856298B2 (priority 2011, dated 2018).
In brackets after ≈: the same amount, converted by molar mass. Numbered stars: 1 amine (or outer) side, 2 acyl side, 3 side chain; on linkers, the order of the positions; unused ones are H or OH. Square brackets hold non-standard residues; d marks the D form. Primed or numbered codes have the meaning given here. Peptide text beside a SMILES is read from it. * marks the point of attachment. δOrn(α-TMG) = CN(C)C(=N[C@@H](CCCN[*:1])C(=O)[*:2])N(C)C; Guan″ = guanidino group at the N-terminus, N=C(N)*; Hyp = O=C(O)[C@@H]1C[C@@H](O)CN1; Tle = CC(C)(C)[C@H](N)C(=O)O; Orn = NCCC[C@H](N)C(=O)O

test system: not listed separately; assay: mouse serum (100%); settings: 37° C., up to 6 hours

Molecule	cleaved bond
Guan-ONO(tPEG^750-GARSG)RPVYIPRPRPPHPRL-OH	R-S
sPEG^750-GAR-VDKPPYLPRPRPPROIYNO-NH2	R-V
Guan-OO(tPEG^750-GARSG)NRPVYIPRPRPPHPRL-OH	R-S
Guan-ONO(tPEG^5000-GRSG)RPVYIPRPRPPHPRL-OH	R-S
tPEG^750-GAR-VDKPPYLPRPRPPROIYNO-NH2	R-V
Guan-OO(tPEG^5000-GAARSG)NRPVYIPRPRPPHPRL-OH	R-S
sPEG^750-GAR-VDKPPYLPRPRPHypRHypTleYNO-NH2	R-V
Guan-ONO(tPEG^750-GAARSG)RPVYIPRPRPPHPRL-OH	R-S
Guan-OO(tPEG^750-GAARSG)NRPVYIPRPRPPHPRL-OH	R-S
Guan-OO(sPEG^750-GAARSG)NRPVYIPRPRPPHPRL-OH	R-S
Guan-ONO(sPEG^750-GAARSG)RPVYIPRPRPPHPRL-OH	R-S
Guan-OO(tPEG^750-GRSG)NRPVYIPRPRPPHPRL-OH	R-S
tPEG^5000-GAR-VDKPPYLPRPRPPROIYNO-NH2	R-V
Guan-OO(sPEG^750-GARSG)NRPVYIPRPRPPHPRL-OH	R-S
Guan-ONO(sPEG^750-GARSG)RPVYIPRPRPPHPRL-OH	R-S
Guan-OO(tPEG^5000-GRSG)NRPVYIPRPRPPHPRL-OH	R-S
Guan-ONO(sPEG^750-GRSG)RPVYIPRPRPPHPRL-OH	R-S
Guan-ONO(tPEG^5000-GAARSG)RPVYIPRPRPPHPRL-OH	R-S
Guan-OO(tPEG^5000-GARSG)NRPVYIPRPRPPHPRL-OH	R-S
Guan-OO(sPEG^750-GRSG)NRPVYIPRPRPPHPRL-OH	R-S
Guan-ONO(tPEG^750-GRSG)RPVYIPRPRPPHPRL-OH	R-S
tPEG^750-GAR-VDKPPYLPRPRPHypRHypTleYNO-NH2	R-V

test system: Escherichia coli strain BL21AI; assay: Minimum inhibitory concentration in 1% TSB; assay type: cell-based; settings: E. coli BL21AI, 1% TSB, 20 hours at 37° C.
Experimental: To that end, the peptides were dissolved in water and diluted in a two-fold dilution series with 1% aqueous soybean medium (TSB) in sterile 96-well plates (Greiner Bio-One GmbH) from 128 μg/ml in twelve dilution steps to 62.5 ng/ml. Overnight cultures of Escherichia coli strain BL21AI were adjusted with 1% TSB to about […] colony forming units per ml. In each case 50 μl of peptide solution per well were then mixed with in each case 50 μl of the bacteria solution, in order to achieve a starting concentration of 4×10^5 bacteria per well. After incubation for 20 hours at 37° C., the absorption at 595 nm was determined (microplate reader, TECAN Trading AG).

Molecule	MIC in TSB
CC(C)C[C@H](NC(=O)[C@H](Cc1ccc(O)cc1)NC(=O)[C@@H]1CCCN1C(=O)[C@@H]1CCCN1C(=O)[C@H](CCCCN)NC(=O)[C@H](CC(=O)O)NC(=O)[C@@H](N)C(C)C)C(=O)N1CCC[C@H]1C(=O)N[C@@H](CCCNC(=N)N)C(=O)N1CCC[C@H]1C(=O)N[C@@H](CCCNC(=N)N)C(=O)N1CCC[C@H]1C(=O)N1C[C@H](O)C[C@H]1C(=O)N[C@@H](CCCNC(=N)N)C(=O)N1C[C@H](O)C[C@H]1C(=O)N[C@H](C(=O)N[C@@H](Cc1ccc(O)cc1)C(=O)N[C@@H](CC(N)=O)C(=O)N[C@@H](CCCN)C(N)=O)C(C)(C)C [Onc 110] (H-VDKPPYLPRPRP[Hyp]R[Hyp][Tle]YN[Orn]-NH2)	6.9 µM (≈ 16 µg/mL)
Guan-O(sPEG^5000-GARSG)NNRPVYIPRPRPPHPRL-OH ({Guan″}-[Orn]NNRPVYIPRPRPPHPRL-OH; not fully specified (residue 1)) [Api 137 (sPEG^5000-GARSG)]	3.7 µM
CC[C@H](C)[C@H](NC(=O)[C@H](Cc1ccc(O)cc1)NC(=O)[C@@H](NC(=O)[C@@H]1CCCN1C(=O)[C@H](CCCNC(=N)N)NC(=O)[C@H](CC(N)=O)NC(=O)[C@H](CC(N)=O)NC(=O)[C@H](CCCNC(=O)CNC(=O)[C@@H](N)CO)N=C(N(C)C)N(C)C)C(C)C)C(=O)N1CCC[C@H]1C(=O)N[C@@H](CCCNC(=N)N)C(=O)N1CCC[C@H]1C(=O)N[C@@H](CCCNC(=N)N)C(=O)N1CCC[C@H]1C(=O)N1CCC[C@H]1C(=O)N[C@@H](Cc1c[nH]cn1)C(=O)N1CCC[C@H]1C(=O)N[C@@H](CCCNC(=N)N)C(=O)N[C@@H](CC(C)C)C(=O)O [Api 137 (SG)] (H-SG[δOrn(α-TMG)]NNRPVYIPRPRPPHPRL-OH)	0.2 µM (≈ 0.487 µg/mL)
Guan-O(sPEG^20000-GARSG)NNRPVYIPRPRPPHPRL-OH ({Guan″}-[Orn]NNRPVYIPRPRPPHPRL-OH; not fully specified (residue 1)) [Api 137 (sPEG^20000-GARSG)]	10.2 µM

same assay, conditions: compared with the unmodified peptide

Molecule	Effect of peptide linker or remaining linker residues on the MIC
CC[C@H](C)[C@H](NC(=O)[C@H](Cc1ccc(O)cc1)NC(=O)[C@@H](NC(=O)[C@@H]1CCCN1C(=O)[C@H](CCCNC(=N)N)NC(=O)[C@H](CC(N)=O)NC(=O)[C@H](CC(N)=O)NC(=O)[C@H](CCCNC(=O)CNC(=O)[C@@H](N)CO)N=C(N(C)C)N(C)C)C(C)C)C(=O)N1CCC[C@H]1C(=O)N[C@@H](CCCNC(=N)N)C(=O)N1CCC[C@H]1C(=O)N[C@@H](CCCNC(=N)N)C(=O)N1CCC[C@H]1C(=O)N1CCC[C@H]1C(=O)N[C@@H](Cc1c[nH]cn1)C(=O)N1CCC[C@H]1C(=O)N[C@@H](CCCNC(=N)N)C(=O)N[C@@H](CC(C)C)C(=O)O [Api 137 (SG)] (H-SG[δOrn(α-TMG)]NNRPVYIPRPRPPHPRL-OH)	does not increase the MIC or increases it only insignificantly
